Test results as given in ChEMBL document CHEMBL5715954, “Silencing c-Myc translation as a therapeutic strategy through targeting PI3Kδ and CK1ε in hematological malignancies” (Blood, 2017).
The source made the active and inactive calls. No cut-off for these calls is given here.

What was measured:
JeKo-1 = experiment: Cytotoxicity against human JeKo-1 cells assessed as reduction in cell viability measured after 24 hrs by cell titer-glo assay; format: functional, cell-based
mTORC1 (Homo sapiens) [1] = target: T1, mTORC1 (Homo sapiens) (UniProt P42345+Q8N122+Q9BVC4); experiment: Inhibition of mTORC1 in human CLL cells assessed as reduction in 4E-BP1 phosphorylation at 5 uM measured after 24 hrs by Western blot analysis; format: cell-based; settings: CLL cell
T1 sequence (Q8N122 whole entry, looked up, other chains not shown): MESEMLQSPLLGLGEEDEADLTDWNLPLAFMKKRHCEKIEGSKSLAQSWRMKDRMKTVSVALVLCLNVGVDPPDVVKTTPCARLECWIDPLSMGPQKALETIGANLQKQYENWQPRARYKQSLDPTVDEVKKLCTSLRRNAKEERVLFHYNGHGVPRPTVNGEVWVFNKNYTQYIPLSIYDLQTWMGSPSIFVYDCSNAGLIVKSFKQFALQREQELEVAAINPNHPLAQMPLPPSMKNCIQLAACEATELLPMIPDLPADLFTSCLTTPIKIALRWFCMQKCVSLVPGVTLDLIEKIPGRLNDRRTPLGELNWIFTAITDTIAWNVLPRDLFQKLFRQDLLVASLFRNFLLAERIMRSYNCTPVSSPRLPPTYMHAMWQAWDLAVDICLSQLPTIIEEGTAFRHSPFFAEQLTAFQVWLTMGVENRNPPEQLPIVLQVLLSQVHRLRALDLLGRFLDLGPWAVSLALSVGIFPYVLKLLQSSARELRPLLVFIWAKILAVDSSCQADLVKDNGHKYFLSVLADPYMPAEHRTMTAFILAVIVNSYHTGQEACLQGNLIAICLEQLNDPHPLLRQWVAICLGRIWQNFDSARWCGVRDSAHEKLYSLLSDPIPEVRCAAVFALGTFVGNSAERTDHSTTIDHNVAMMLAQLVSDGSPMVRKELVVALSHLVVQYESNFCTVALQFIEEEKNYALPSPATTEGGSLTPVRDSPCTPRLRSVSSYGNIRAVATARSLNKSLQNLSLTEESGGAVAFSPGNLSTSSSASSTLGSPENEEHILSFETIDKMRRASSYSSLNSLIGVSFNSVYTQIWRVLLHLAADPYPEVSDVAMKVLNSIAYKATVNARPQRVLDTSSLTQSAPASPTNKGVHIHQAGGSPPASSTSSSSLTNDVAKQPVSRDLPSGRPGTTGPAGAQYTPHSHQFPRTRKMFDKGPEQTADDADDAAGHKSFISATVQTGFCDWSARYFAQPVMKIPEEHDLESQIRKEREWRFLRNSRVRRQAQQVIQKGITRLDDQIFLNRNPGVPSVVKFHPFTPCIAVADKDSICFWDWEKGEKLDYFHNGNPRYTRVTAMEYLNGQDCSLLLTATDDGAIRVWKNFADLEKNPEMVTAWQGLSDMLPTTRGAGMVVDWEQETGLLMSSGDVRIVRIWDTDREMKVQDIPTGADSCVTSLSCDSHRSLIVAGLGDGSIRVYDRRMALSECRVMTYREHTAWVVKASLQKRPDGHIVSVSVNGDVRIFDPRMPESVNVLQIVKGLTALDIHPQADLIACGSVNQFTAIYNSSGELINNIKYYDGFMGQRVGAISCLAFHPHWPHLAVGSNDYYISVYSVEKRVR
T1 sequence (Q9BVC4 whole entry, looked up, other chains not shown): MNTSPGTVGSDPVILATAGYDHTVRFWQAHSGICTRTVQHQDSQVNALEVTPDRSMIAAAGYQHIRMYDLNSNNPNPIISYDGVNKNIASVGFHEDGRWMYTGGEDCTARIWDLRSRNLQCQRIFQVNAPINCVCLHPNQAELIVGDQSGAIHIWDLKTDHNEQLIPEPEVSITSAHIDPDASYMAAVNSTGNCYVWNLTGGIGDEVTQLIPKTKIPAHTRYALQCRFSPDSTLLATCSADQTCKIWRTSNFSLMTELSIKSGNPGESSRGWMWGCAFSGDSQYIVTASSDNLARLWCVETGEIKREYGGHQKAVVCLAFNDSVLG

MZL = experiment: Induction of apoptosis in human MZL cells assessed as increase in cleaved-PARP expression at 5 uM measured after 24 hrs in presence of carfilzomib by Western blot analysis; format: functional, cell-based
[2] = target: Myc proto-oncogene protein (Homo sapiens) (UniProt P01106); experiment: Inhibition of c-Myc in human LY7 cells assessed as reduction in eIF4B expression at 3 uM incubated for 24 hrs by Western blot analysis; format: cell-based
Sequence of Myc proto-oncogene protein (Homo sapiens) (P01106 whole entry): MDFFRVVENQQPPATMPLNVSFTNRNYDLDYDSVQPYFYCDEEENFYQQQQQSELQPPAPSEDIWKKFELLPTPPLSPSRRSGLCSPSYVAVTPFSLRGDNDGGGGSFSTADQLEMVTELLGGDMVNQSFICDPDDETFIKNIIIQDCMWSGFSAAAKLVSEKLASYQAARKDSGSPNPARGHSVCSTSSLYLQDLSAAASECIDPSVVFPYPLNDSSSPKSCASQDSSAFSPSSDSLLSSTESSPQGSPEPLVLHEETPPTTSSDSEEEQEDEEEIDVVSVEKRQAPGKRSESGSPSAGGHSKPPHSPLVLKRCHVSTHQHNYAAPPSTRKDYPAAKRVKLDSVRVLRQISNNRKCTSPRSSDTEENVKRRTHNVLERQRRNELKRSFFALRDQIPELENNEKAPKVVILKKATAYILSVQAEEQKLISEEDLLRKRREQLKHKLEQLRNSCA

mTORC1 (Homo sapiens) [3] = target: T1, mTORC1 (Homo sapiens); experiment: Inhibition of mTORC1 in human LY10 cells assessed as reduction in 4E-BP1 phosphorylation at 3 uM measured after 24 hrs by Western blot analysis; format: cell-based
mTORC1 (Homo sapiens) [4] = target: T1, mTORC1 (Homo sapiens); experiment: Inhibition of mTORC1 in human LY10 cells assessed as reduction in c-Myc expression at 3 uM measured after 24 hrs by Western blot analysis; format: cell-based
[5] = target: Serine/threonine-protein kinase WNK3 (Homo sapiens) (UniProt Q9BYP7); experiment: Inhibition of human WNK3 assessed as enzyme activity at 1 uM using myelin basic protein as substrate preincubated for 20 mins followed by [gamma-33P]-ATP addition and measured after 120 mins by radiometric Hot-SpotSM Kinase assay relative to control; parameters: scale not given: the % may be the effect or the level left
Sequence of Serine/threonine-protein kinase WNK3 (Homo sapiens) (Q9BYP7 whole entry): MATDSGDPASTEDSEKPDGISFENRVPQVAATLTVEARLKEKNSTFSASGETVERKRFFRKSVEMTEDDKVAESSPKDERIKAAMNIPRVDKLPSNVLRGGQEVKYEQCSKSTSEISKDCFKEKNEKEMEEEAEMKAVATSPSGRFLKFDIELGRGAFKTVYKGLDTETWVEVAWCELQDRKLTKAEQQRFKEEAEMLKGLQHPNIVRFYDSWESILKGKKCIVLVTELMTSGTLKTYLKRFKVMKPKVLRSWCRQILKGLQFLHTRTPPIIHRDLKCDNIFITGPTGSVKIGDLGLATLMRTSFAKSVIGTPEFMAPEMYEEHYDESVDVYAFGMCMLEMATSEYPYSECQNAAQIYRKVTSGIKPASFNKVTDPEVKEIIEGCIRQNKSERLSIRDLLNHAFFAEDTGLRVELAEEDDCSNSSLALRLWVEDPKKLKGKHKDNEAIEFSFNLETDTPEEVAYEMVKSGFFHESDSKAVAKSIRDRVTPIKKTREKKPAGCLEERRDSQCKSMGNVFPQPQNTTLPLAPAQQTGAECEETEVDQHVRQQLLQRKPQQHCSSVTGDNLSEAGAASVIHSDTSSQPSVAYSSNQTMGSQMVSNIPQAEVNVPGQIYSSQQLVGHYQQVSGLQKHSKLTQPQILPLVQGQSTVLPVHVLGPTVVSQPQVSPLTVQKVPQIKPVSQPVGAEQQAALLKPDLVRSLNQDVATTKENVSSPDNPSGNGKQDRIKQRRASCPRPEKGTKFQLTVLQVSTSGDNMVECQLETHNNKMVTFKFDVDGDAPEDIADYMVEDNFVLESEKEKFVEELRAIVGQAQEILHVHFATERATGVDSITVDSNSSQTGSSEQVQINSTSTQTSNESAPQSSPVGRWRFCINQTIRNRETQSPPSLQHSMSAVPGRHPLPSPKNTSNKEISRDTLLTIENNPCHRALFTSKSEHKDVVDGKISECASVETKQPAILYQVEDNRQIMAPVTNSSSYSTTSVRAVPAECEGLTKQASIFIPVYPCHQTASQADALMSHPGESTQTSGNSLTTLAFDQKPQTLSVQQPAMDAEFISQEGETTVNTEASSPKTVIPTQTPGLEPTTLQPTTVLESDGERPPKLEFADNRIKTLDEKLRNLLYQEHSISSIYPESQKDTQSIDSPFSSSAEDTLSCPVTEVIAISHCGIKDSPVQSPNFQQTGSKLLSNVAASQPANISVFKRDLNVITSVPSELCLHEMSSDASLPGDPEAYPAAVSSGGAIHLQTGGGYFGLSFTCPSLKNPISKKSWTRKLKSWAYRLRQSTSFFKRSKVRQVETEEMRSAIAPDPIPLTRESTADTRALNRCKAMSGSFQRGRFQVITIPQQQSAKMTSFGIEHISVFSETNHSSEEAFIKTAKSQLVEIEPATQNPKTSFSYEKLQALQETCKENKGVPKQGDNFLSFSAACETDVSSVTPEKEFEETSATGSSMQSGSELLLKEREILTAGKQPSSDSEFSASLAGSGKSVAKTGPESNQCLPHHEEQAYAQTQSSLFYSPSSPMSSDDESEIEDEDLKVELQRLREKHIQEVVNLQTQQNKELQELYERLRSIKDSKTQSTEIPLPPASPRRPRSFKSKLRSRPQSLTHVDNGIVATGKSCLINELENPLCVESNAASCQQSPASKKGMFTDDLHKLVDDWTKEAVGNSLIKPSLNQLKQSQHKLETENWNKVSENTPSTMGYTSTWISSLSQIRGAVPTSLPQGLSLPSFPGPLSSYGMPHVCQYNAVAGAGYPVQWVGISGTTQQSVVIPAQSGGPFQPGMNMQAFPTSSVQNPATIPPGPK

[6] = target: Myc proto-oncogene protein (Homo sapiens) (UniProt P01106); experiment: Inhibition of c-Myc in human LY7 cells assessed as reduction in E2F1 expression at 3 uM incubated for 24 hrs by Western blot analysis; format: cell-based
[7] = target: Mitogen-activated protein kinase 14 (Homo sapiens) (UniProt Q16539); experiment: Inhibition of human P38a assessed as enzyme activity at 1 uM using myelin basic protein as substrate preincubated for 20 mins followed by [gamma-33P]-ATP addition and measured after 120 mins by radiometric Hot-SpotSM Kinase assay relative to control; parameters: scale not given: the % may be the effect or the level left
Sequence of Mitogen-activated protein kinase 14 (Homo sapiens) (Q16539 whole entry): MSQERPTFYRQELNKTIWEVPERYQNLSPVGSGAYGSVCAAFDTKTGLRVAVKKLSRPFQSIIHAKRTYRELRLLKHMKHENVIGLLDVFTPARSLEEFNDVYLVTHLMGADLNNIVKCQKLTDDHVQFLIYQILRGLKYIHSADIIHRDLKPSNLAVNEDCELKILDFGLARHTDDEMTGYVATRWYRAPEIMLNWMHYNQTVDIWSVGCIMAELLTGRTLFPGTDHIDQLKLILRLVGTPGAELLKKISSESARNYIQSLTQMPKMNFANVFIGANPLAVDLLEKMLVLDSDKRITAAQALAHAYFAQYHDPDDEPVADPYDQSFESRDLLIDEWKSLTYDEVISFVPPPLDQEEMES

[8] = target: Myc proto-oncogene protein (Homo sapiens) (UniProt P01106); experiment: Inhibition of c-Myc in human LY10 cells assessed as reduction in eIF4B expression at 3 uM incubated for 24 hrs by Western blot analysis; format: cell-based
[9] = target: CDK2/Cyclin A1 (Homo sapiens) (UniProt P24941+P78396); experiment: Inhibition of human CDK2/Cyclin A1 assessed as enzyme activity at 1 uM using RB Protein as substrate preincubated for 20 mins followed by [gamma-33P]-ATP addition and measured after 120 mins by radiometric Hot-SpotSM Kinase assay relative to control; format: protein-complex assay; parameters: scale not given: the % may be the effect or the level left
LY7 [10] = experiment: Cytotoxicity against human LY7 cells assessed as reduction in cell viability measured after 24 hrs by cell titer-glo assay; format: functional, cell-based
mTORC1 (Homo sapiens) [11] = target: T1, mTORC1 (Homo sapiens); experiment: Inhibition of mTORC1 in human LY10 cells assessed as reduction in c-Myc expression at 3 uM measured after 24 hrs in presence of bortezomib by Western blot analysis; format: cell-based
mTORC1 (Homo sapiens) [12] = target: T1, mTORC1 (Homo sapiens); experiment: Inhibition of mTORC1 in human SLL cells assessed as reduction in c-Myc expression at 5 uM measured after 24 hrs by Western blot analysis; format: cell-based
H9 = experiment: Cytotoxicity against human H9 cells assessed as reduction in cell viability measured after 48 hrs by cell titer-glo assay; format: functional, cell-based
OCI-Ly10 [13] = experiment: Cytotoxicity against human LY10 cells assessed as reduction in cell viability measured after 24 hrs by cell titer-glo assay; format: functional, cell-based
OCI-Ly10 [14] = experiment: Induction of apoptosis in human LY10 cells assessed as increase in cleaved-PARP expression at 3 uM measured after 24 hrs in presence of carfilzomib by Western blot analysis; format: functional, cell-based
OCI-Ly10 [15] = experiment: Induction of apoptosis in human LY10 cells assessed as increase in caspase-3/7 activation at 1 to 3 uM measured after 24 hrs in presence of carfilzomib; format: functional, cell-based; settings: dose 1-3 µM
SLL = experiment: Induction of apoptosis in human SLL cells assessed as increase in cleaved-PARP expression at 5 uM measured after 24 hrs in presence of carfilzomib by Western blot analysis; format: functional, cell-based
[16] = target: RAF proto-oncogene serine/threonine-protein kinase (Homo sapiens) (UniProt P04049); experiment: Inhibition of human RAF1 assessed as enzyme activity at 1 uM using MEK1 (K97R) as substrate preincubated for 20 mins followed by [gamma-33P]-ATP addition and measured after 120 mins by radiometric Hot-SpotSM Kinase assay relative to control; parameters: scale not given: the % may be the effect or the level left
Sequence of RAF proto-oncogene serine/threonine-protein kinase (Homo sapiens) (P04049 whole entry): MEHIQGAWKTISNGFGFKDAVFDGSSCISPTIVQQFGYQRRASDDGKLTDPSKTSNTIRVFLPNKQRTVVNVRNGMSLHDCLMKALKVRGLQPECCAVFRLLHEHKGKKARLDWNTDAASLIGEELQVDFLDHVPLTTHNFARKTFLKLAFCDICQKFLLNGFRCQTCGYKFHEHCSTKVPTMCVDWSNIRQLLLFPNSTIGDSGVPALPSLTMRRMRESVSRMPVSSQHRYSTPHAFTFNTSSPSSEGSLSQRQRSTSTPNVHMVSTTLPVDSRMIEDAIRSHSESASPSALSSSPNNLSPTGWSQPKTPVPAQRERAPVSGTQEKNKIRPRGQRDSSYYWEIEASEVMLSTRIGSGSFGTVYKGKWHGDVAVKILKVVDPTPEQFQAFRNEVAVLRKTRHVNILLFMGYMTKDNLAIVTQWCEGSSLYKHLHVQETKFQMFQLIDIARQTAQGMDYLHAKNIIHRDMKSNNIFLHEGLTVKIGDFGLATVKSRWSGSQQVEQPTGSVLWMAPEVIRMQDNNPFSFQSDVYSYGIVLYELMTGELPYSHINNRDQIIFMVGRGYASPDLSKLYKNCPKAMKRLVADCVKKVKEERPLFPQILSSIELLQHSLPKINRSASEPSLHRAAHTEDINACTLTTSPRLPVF

mTORC1 (Homo sapiens) [17] = target: T1, mTORC1 (Homo sapiens); experiment: Inhibition of mTORC1 in human LY10 cells assessed as reduction in c-Myc expression at 3 uM measured after 24 hrs in presence of carfilzomib by Western blot analysis; format: cell-based
Rec1 = experiment: Cytotoxicity against human REC1 cells assessed as reduction in cell viability measured after 24 hrs by cell titer-glo assay; format: functional, cell-based
mTORC1 (Homo sapiens) [18] = target: T1, mTORC1 (Homo sapiens); experiment: Inhibition of mTORC1 in human PF-382 cells assessed as reduction in 4E-BP1 phosphorylation at 5 uM measured after 24 hrs by Western blot analysis; format: cell-based
mTORC1 (Homo sapiens) [19] = target: T1, mTORC1 (Homo sapiens); experiment: Inhibition of mTORC1 in human LY7 cells assessed as reduction in 4E-BP1 phosphorylation at 3 uM measured after 24 hrs by Western blot analysis; format: cell-based
mTORC1 (Homo sapiens) [20] = target: T1, mTORC1 (Homo sapiens); experiment: Inhibition of mTORC1 in human LY10 cells assessed as reduction in c-Myc mRNA expression at 3 uM measured after 24 hrs in presence of carfilzomib; format: cell-based
mTORC1 (Homo sapiens) [21] = target: T1, mTORC1 (Homo sapiens); experiment: Inhibition of mTORC1 in human LY10 cells assessed as reduction in c-Myc mRNA expression at 3 uM measured after 24 hrs in presence of bortezomib; format: cell-based
mTORC1 (Homo sapiens) [22] = target: T1, mTORC1 (Homo sapiens); experiment: Inhibition of mTORC1 in human PF-382 cells assessed as reduction in c-Myc expression at 5 uM measured after 24 hrs by Western blot analysis; format: cell-based
Z-138 = experiment: Cytotoxicity against human Z138 cells assessed as reduction in cell viability measured after 48 hrs by cell titer-glo assay; format: functional, cell-based
CLL cell = experiment: Induction of apoptosis in human CLL cells assessed as increase in cleaved-PARP expression at 5 uM measured after 24 hrs in presence of carfilzomib by Western blot analysis; format: functional, cell-based
PF-382 = experiment: Induction of apoptosis in human PF-382 cells assessed as increase in cleaved-PARP expression at 5 uM measured after 24 hrs in presence of carfilzomib by Western blot analysis; format: functional, cell-based
LY7 [23] = experiment: Induction of apoptosis in human LY7 cells assessed as increase in cleaved-PARP expression at 3 uM measured after 24 hrs in presence of carfilzomib by Western blot analysis; format: functional, cell-based
[24] = target: Myc proto-oncogene protein (Homo sapiens) (UniProt P01106); experiment: Inhibition of c-Myc in human LY10 cells assessed as reduction in E2F1 expression at 3 uM incubated for 24 hrs by Western blot analysis; format: cell-based
mTORC1 (Homo sapiens) [25] = target: T1, mTORC1 (Homo sapiens); experiment: Inhibition of mTORC1 in human CLL cells assessed as reduction in c-Myc expression at 5 uM measured after 24 hrs by Western blot analysis; format: cell-based; settings: CLL cell
mTORC1 (Homo sapiens) [26] = target: T1, mTORC1 (Homo sapiens); experiment: Inhibition of mTORC1 in human LY7 cells assessed as reduction in c-Myc expression at 3 uM measured after 24 hrs by Western blot analysis; format: cell-based
mTORC1 (Homo sapiens) [27] = target: T1, mTORC1 (Homo sapiens); experiment: Inhibition of mTORC1 in human SLL cells assessed as reduction in 4E-BP1 phosphorylation at 5 uM measured after 24 hrs by Western blot analysis; format: cell-based

Compound | Activity (JeKo-1) | inhibition (mTORC1 (Homo sapiens) [1]) | Activity (MZL) | inhibition [2] | inhibition (mTORC1 (Homo sapiens) [3]) | inhibition (mTORC1 (Homo sapiens) [4]) | Activity [5] [%] | inhibition [6] | Activity [7] [%] | inhibition [8] | Activity [9] [%] | Activity (LY7 [10]) | inhibition (mTORC1 (Homo sapiens) [11]) | inhibition (mTORC1 (Homo sapiens) [12]) | Activity (H9) | Activity (OCI-Ly10 [13]) | Activity (OCI-Ly10 [14]) | Activity (OCI-Ly10 [15]) | Activity (SLL) | Activity [16] [%] | further results
CC[C@H](Nc1ncnc2[nH]cnc12)c1nc2cccc(F)c2c(=O)n1-c1ccccc1 | Active | inactive | Active | inactive | inactive | inactive | 86.4 | inactive | 98.8 | inactive | 86.7 | Active | inactive | inactive | Active | Active | Active | Active | Active | 95.3 | inhibition (mTORC1 (Homo sapiens) [17]): Active; Activity (Rec1): Active; inhibition (mTORC1 (Homo sapiens) [18]): inactive; inhibition (mTORC1 (Homo sapiens) [19]): inactive; inhibition (mTORC1 (Homo sapiens) [20]): inactive; inhibition (mTORC1 (Homo sapiens) [21]): inactive; inhibition (mTORC1 (Homo sapiens) [22]): inactive; Activity (Z-138): Active; Activity (CLL cell): Active; Activity (PF-382): Active; Activity (LY7 [23]): Active; inhibition [24]: inactive; inhibition (mTORC1 (Homo sapiens) [25]): inactive; inhibition (mTORC1 (Homo sapiens) [26]): inactive; inhibition (mTORC1 (Homo sapiens) [27]): inactive
C[C@H](Nc1ncnc2nc[nH]c12)c1cc2cccc(Cl)c2c(=O)n1-c1ccccc1 |  |  |  |  |  |  | 86.8 |  | 94.5 |  | 79.7 |  |  |  |  |  |  |  |  | 93.5 | 
CC(C)Oc1ccc(-c2nn([C@@H](C)c3oc4ccc(F)cc4c(=O)c3-c3cccc(F)c3)c3ncnc(N)c23)cc1F [UMBRALISIB] | Active | inactive | Active | inactive | inactive | inactive | 82.7 | inactive | 96.9 | inactive | 78 | Active | Active | inactive | Active | Active | Active | Active | Active | 93.1 | inhibition (mTORC1 (Homo sapiens) [17]): Active; Activity (Rec1): Active; inhibition (mTORC1 (Homo sapiens) [18]): inactive; inhibition (mTORC1 (Homo sapiens) [19]): inactive; inhibition (mTORC1 (Homo sapiens) [20]): inactive; inhibition (mTORC1 (Homo sapiens) [21]): inactive; inhibition (mTORC1 (Homo sapiens) [22]): inactive; Activity (Z-138): Active; Activity (CLL cell): Active; Activity (PF-382): Active; Activity (LY7 [23]): Active; inhibition [24]: inactive; inhibition (mTORC1 (Homo sapiens) [25]): inactive; inhibition (mTORC1 (Homo sapiens) [26]): inactive; inhibition (mTORC1 (Homo sapiens) [27]): inactive
